Data as given in article PMC12434668 (Journal of Medicinal Chemistry, 2025).
Values joined by “and” are separate entries in the source; they are usually repeats but may differ in a detail not shown here. Equal values may be shown once. Read-outs that look alike come from different tables or passages of the source.

Tests used:
Mcl-1 = target: T1, Mcl-1 (Homo sapiens, UniProt Q07820); experiment: TR-FRET binding assay (FITC-Bak peptide competition)
T1 construct: Briefly, a previously reported construct was subcloned into an expression vector (pDEST-HisMBP); MBP (from vector pDEST-HisMBP); made in house; host or cells: Escherichia coli BL21 CodonPlus (DE3) RIL
T1 sequence (Q07820 whole entry): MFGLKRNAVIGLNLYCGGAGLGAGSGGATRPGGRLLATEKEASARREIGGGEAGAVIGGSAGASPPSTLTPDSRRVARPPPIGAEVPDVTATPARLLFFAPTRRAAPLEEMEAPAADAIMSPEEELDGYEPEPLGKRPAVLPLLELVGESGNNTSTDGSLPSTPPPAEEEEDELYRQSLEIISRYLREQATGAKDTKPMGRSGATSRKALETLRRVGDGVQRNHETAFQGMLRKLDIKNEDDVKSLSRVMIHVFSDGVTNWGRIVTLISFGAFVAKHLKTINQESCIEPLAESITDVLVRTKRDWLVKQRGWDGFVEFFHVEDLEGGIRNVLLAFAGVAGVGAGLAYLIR
Excerpt: Protein preparation was described previously. Briefly, a previously reported construct was subcloned into an expression vector (pDEST-HisMBP) expressed in Escherichia coli BL21 CodonPlus (DE3) RIL (Stratagene) and purified through nickel-column and size-exclusion chromatography sequentially.
Mixtures containing vehicle without compound served as a negative control, while mixtures containing no protein served as a positive control. […] Two or more repeats were obtained and average K i values are reported.

NCI-H929 cells = experiment: In vitro proliferation assay (CellTiter-Glo), H929; assay type: cell-based; conditions: Homo sapiens
Protocol: (§1) NCI-H929, A427, and K562 cell lines were obtained from ATCC. NCI-H929 cells were cultured in RPMI1640 (ATCC-formulated, Catalog No. 30-2001) + 10% fetal calf serum (FCS, GIBCO BRL, Cat. No. 26140) + 0.05 mM mercaptoethanol. A-427 cells were cultured in RPMI1640 (ATCC-formulated, Catalog No. 30-2001) + 10% fetal calf serum (FCS, GIBCO BRL, Cat. No. 26140). K562 cell lines were cultured in Iscove’s Modified Dulbecco Medium (Gibco-formulated, purchased from Thermo-Fisher, Cat. No. 12440-053) + 10% fetal bovine serum (FBS, Sigma-Aldrich, F2442). All cell lines were cultured at 37 °C with 5% CO2 in a humidified incubator and have been regularly tested negatively for mycoplasm contamination.
(§2) Cells were seeded at 750–1500 cells per well (depending on growth kinetics) in 384-well plates (Corning, Catalog No. 3707) or at 3000 cells per well in 96-well plates in the respective growth medium and allowed to settle overnight. Suspension cells were plated immediately before compound addition. Adherent cell lines were incubated overnight at 37 °C in a tissue culture incubator prior to compound addition. Compounds were added in triplicates using an HP D300e Digital Dispenser (Hewlett-Packard) or manually at the concentrations indicated and total volumes were normalized using DMSO backfill, with final DMSO concentration of 0.5%. Control wells were treated with DMSO only. Following incubation for 72 or 96 h, a Cell Titer-Glo assay was conducted following the manufacturer recommendations (Promega, G9243) and luminescence was measured using a Victor X5 (PerkinElmer) or a Cytation 3 (Biotek) plate reader. % Viability was defined as relative luminescence units (RLU) of each well divided by the RLU of cells on day 0. Four parameter sigmoidal dose–response curves were generated and IC50 values were determined using XLFit (IDBS) software (eq 205) or in-house software. Drug combination experiments were performed in 96-well or 384-well format and drug synergy was determined using the BLISS model (PMID: 26171228).

A427 cells = experiment: In vitro proliferation assay (CellTiter-Glo), A427; assay type: cell-based; conditions: Homo sapiens, A-427
Protocol: as §1, §2

K562 cells = experiment: In vitro proliferation counterscreen, Mcl-1 insensitive K562; assay type: cell-based; conditions: Homo sapiens; Mcl-1 insensitive K562; top concentration tested 12.5 µM
Protocol: NCI-H929, A427, and K562 cell lines were obtained from ATCC.
Suspension cells were plated immediately before compound addition. Adherent cell lines were incubated overnight at 37 °C in a tissue culture incubator prior to compound addition. Compounds were added in triplicates using an HP D300e Digital Dispenser (Hewlett-Packard) or manually at the concentrations indicated and total volumes were normalized using DMSO backfill, with final DMSO concentration of 0.5%. Control wells were treated with DMSO only. Following incubation for 72 or 96 h, a Cell Titer-Glo assay was conducted following the manufacturer recommendations (Promega, G9243) and luminescence was measured using a Victor X5 (PerkinElmer) or a Cytation 3 (Biotek) plate reader. % Viability was defined as relative luminescence units (RLU) of each well divided by the RLU of cells on day 0.

[1] = test system: caspase 3/7 in H929 cells; experiment: Caspase 3/7 induction assay (Caspase-Glo), H929; assay type: cell-based; conditions: compound treatment for 3 h; for EC50: Homo sapiens, NCI-H929
Protocol: (§3) Cells were treated with a 10-point compound titration and incubated at 37 °C for 3 h.

[2] = test system: caspase 3/7 in A427 cells; experiment: Caspase 3/7 induction assay (Caspase-Glo), A427; assay type: cell-based; conditions: compound treatment for 3 h; for EC50: Homo sapiens, A-427
Protocol: as §3

[3] = test system: caspase 3/7 in K562 cells; experiment: Caspase 3/7 induction assay (Caspase-Glo), K562; assay type: cell-based; conditions: compound treatment for 3 h; for EC50: Homo sapiens, K562
Protocol: as §3

[4] = Mouse pharmacokinetic analyses (i.v. and oral); assay type: in vivo; conditions: plasma, iv
Protocol: For PK analysis, mice were administered intravenously or orally with compound formulated in 10% ethanol and 10% Cremophor EL. Compound 13 dosing was also screened with 20% Phosphal IPG, 20% Phosphal MCT, 10% HP-β-CD, and 40% HP-β-CD. Plasma samples were obtained at predefined time points and compound concentrations in plasma were measured by quantitative HPLC–MS/MS using an internal standard. Calibration and quality control samples were prepared using blank plasma from untreated animals. Samples were precipitated with acetonitrile and injected into a HPLC system (Agilent 1200). Separation was performed by gradients of 5 mmol/L ammonium acetate pH 5.0 and acetonitrile with 0.1% formic acid on a Luna C8 reversed-phase column with 2.5 μm particles (Phenomenex). The HPLC was interfaced by ESI operated in positive ionization mode to a triple quadrupole mass spectrometer (6500+ Triple Quad System, SCIEX) operated in multiple reaction monitoring mode. Chromatograms were analyzed with Analyst (SCIEX) and pharmacokinetic parameters were calculated by noncompartmental analysis using proprietary software.

[5] = in the presence of 1% fetal bovine serum, average of at least n = 2, read-out: TRFRET, Mcl-1 Ki
[6] = H929 cell line, average of at least n = 2, triplicate
[7] = A427 cell line, average of at least n = 2, triplicate
[8] = dosed at 10 mg/kg, read-out: i.v. mouse CL
[9] = supplementary CSV, unit not given (Table 1: 20 mg/kg, 14 and 16 at 10 mg/kg), read-out: CL
[10] = supplementary CSV, unit inferred, read-out: Ki TRFRET
[11] = dosed at 20 mg/kg, read-out: i.v. mouse CL
[12] = supplementary CSV, unit inferred

Compound	Ki (Mcl-1; [5]) [nM]	GI50 (NCI-H929 cells; [6]) [nM]	EC50 [1] [nM]	EC50 [2] [nM]	EC50 [3] [nM]	clearance [4, 8] [mL/min/kg]	clearance [4, 9] [mL/min/kg]	Ki (Mcl-1; [10]) [nM]	clearance [4, 11] [mL/min/kg]	GI50 (NCI-H929 cells; [12]) [nM]	GI50 (A427 cells; [7]) [nM]	GI50 (K562 cells) [nM]	H929 Caspase 3/7 maximum activity, fold over vehicle (FoV) [1]	A427 Caspase 3/7 fold over vehicle (FoV) [2] [fold]	K562 Caspase 3/7 fold over vehicle (FoV) [3] [fold]	GI50 (A427 cells; [12]) [nM]
COc1cc2c3c(cc(C(=O)O)n3CCCOCc3nn(C)cc3-c3cccc4c(CCCOc5cc(C)c(Cl)c(C)c5)c5n(c34)[C@H](C)CN2C5=O)c1OC [Compound 23, (2^63^4 R a ,1^72^2 R a ,2^4 R)-2^10-(3-(4-Chloro-3,5-dimethylphenoxy)propyl)-1^4,1^5-dimethoxy-2^4,3^1-dimethyl-2^1-oxo-2^1,2^2,2^3,2^4-tetrahydro-1^1 H,3^1 H-5-oxa-2(2,6)-pyrazino[1,2-a]indola-1(7,1)-indola-3(4,3)-pyrazolacyclooctaphane-1^2-carboxylic Acid]	< 0.08	15 ± 4	–	–	–	–	–	< 0.02	–	–	32 ± 4	> 12500	–	–	–	–
COc1c(OCC2CCOCC2)cc(N2C[C@@H](C)n3c(c(CCCOc4cc(C)c(Cl)c(C)c4)c4ccc(Cl)c(-c5c(C)nc(C)nc5C)c43)C2=O)c2c1cc(C(=O)N(C)C)n2C [Compound 24, (R)-7-(7-chloro-10-(3-(4-chloro-3,5-dimethylphenoxy)propyl)-4-methyl-1-oxo-6-(2,4,6-trimethylpyrimidin-5-yl)-3,4-dihydropyrazino[1,2-a]indol-2(1H)-yl)-4-methoxy-N,N,1-trimethyl-5-((tetrahydro-2H-pyran-4-yl)methoxy)-1H-indole-2-carboxamide]	105 ± 8	1100 ± 380	–	–	–	–	2	–	2	–	3600 ± 140	> 12500	–	–	–	–
COc1cc2c3c(cc(C(=O)O)n3CCCCOCc3nn(C)c(C)c3-c3c(Cl)ccc4c(CCCOc5cc(C)c(Cl)c(C)c5)c5n(c34)[C@H](C)CN2C5=O)c1OC [Compound 12, (2^63^4 S a ,1^72^2 R a ,24R)-2^7-Chloro-2^10-(3-(4-chloro-3,5-dimethylphenoxy)propyl)-1^4,1^5-dimethoxy-2^4,3^1,3^5-trimethyl-2^1-oxo-2^1,2^2,2^3,2^4-tetrahydro-1^1 H,3^1 H-5-oxa-2(2,6)-pyrazino[1,2-a]indola-1(7,1)-indola-3(4,3)-pyrazolacyclononaphane-1^2-carboxylic Acid]	–	–	–	–	–	–	–	0.12	–	39	–	> 7800	–	–	–	87

Continued, in another order:

Ki (Mcl-1; [5]) [nM]	GI50 (NCI-H929 cells; [6]) [nM]	EC50 [1] [nM]	EC50 [2] [nM]	EC50 [3] [nM]	clearance [4, 8] [mL/min/kg]	clearance [4, 9] [mL/min/kg]	Ki (Mcl-1; [10]) [nM]	clearance [4, 11] [mL/min/kg]	GI50 (NCI-H929 cells; [12]) [nM]	Compound	GI50 (A427 cells; [7]) [nM]	GI50 (K562 cells) [nM]	H929 Caspase 3/7 maximum activity, fold over vehicle (FoV) [1]	A427 Caspase 3/7 fold over vehicle (FoV) [2] [fold]	K562 Caspase 3/7 fold over vehicle (FoV) [3] [fold]	GI50 (A427 cells; [12]) [nM]
< 0.08	27 ± 3	16	24	> 3120	17.3	17.3	–	–	–	COc1ccc2c3c1cc(C(=O)O)n3CCCOCc1nn(C)cc1-c1c(Cl)ccc3c(CCCOc4cc(C)c(Cl)c(C)c4)c4n(c13)[C@H](C)CN2C4=O [Compound 16, (2^63^4 S a ,1^72^2 R a ,2^4 R)-2^7-Chloro-2^10-(3-(4-chloro-3,5-dimethylphenoxy)propyl)-1^4-methoxy-2^4,3^1-dimethyl-2^1-oxo-2^1,2^2,2^3,2^4-tetrahydro-1^1 H,3^1 H-5-oxa-2(2,6)-pyrazino[1,2-a]indola-1(7,1)-indola-3(4,3)-pyrazolacyclooctaphane-1^2-carboxylic Acid]	45 ± 17	> 12500	16 fold and 16 (16) fold	15	1.3	–
< 0.08	64 ± 17	45	35	> 3120	8.4	8.4	0.03	–	–	Cc1cc2c3c(c1)cc(C(=O)O)n3CCCOCc1nn(C)cc1-c1c(Cl)ccc3c(CCCOc4cc(C)c(Cl)c(C)c4)c4n(c13)[C@H](C)CN2C4=O [Compound 14, (2^63^4 S a ,1^72^2 R a ,2^4 R)-2^7-Chloro-2^10-(3-(4-chloro-3,5-dimethylphenoxy)propyl)-1^5,2^4,3^1-trimethyl-2^1-oxo-2^1,2^2,2^3,2^4-tetrahydro-1^1 H,3^1 H-5-oxa-2(2,6)-pyrazino[1,2-a]indola-1(7,1)-indola-3(4,3)-pyrazolacyclooctaphane-1^2-carboxylic Acid]	195 ± 14	> 10200	17 fold	16	1.3	–
–	–	–	–	–	–	70	–	70	–	COc1cc(N2C[C@@H](C)n3c(c(CCCOc4cc(C)c(Cl)c(C)c4)c4ccc(Cl)c(-c5c(C)nn(C)c5C)c43)C2=O)c2c(cc(C(=O)O)n2C)c1OC [Compound 9]	–	–	–	–	–	–
0.08 ± 0.01	–	–	–	–	–	–	0.04	–	24	COc1cc2c3c(cc(C(=O)O)n3CCCOCc3c(c(C)nn3C)-c3c(Cl)ccc4c(CCCOc5cc(C)c(Cl)c(C)c5)c5n(c34)[C@H](C)CN2C5=O)c1OC [Compound 11, (2^63^4 S a ,1^72^2 R a ,2^4 R)-2^7-Chloro-2^10-(3-(4-chloro-3,5-dimethylphenoxy)propyl)-1^4,1^5-dimethoxy-2^4,3^1,3^3-trimethyl-2^1-oxo-2^1,2^2,2^3,2^4-tetrahydro-1^1 H,3^1 H-5-oxa-2(2,6)-pyrazino[1,2-a]indola-1(7,1)-indola-3(4,5)-pyrazolacyclooctaphane-1^2-carboxylic Acid]	–	> 12500	–	–	–	64
< 0.08	38 ± 11	43	34	> 3120	–	–	0.04	–	–	COc1cc2c3c(c1)cc(C(=O)O)n3CCCOCc1nn(C)cc1-c1c(Cl)ccc3c(CCCOc4cc(C)c(Cl)c(C)c4)c4n(c13)[C@H](C)CN2C4=O [Compound 15, (2^63^4 S a ,1^72^2 R a ,2^4 R)-2^7-Chloro-2^10-(3-(4-chloro-3,5-dimethylphenoxy)propyl)-1^5-methoxy-2^4,3^1-dimethyl-2^1-oxo-2^1,2^2,2^3,2^4-tetrahydro-1^1 H,3^1 H-5-oxa-2(2,6)-pyrazino[1,2-a]indola-1(7,1)-indola-3(4,3)-pyrazolacyclooctaphane-1^2-carboxylic Acid]	60 ± 24	> 12500	17 fold	15	1.3	–
